Experimental data taken from patent US20050053631A1, “Method of decreasing sebum production” (Unilever Home & Personal Care USA, Division of Conopco, Inc., priority 2003, published 2005).

Test system: sebocytes
Assay: In Vitro Sebocyte Lipogenesis Assay (14-C acetate incorporation into lipids of cultured sebocytes)
Assay type: cell-based
Settings: cultured human sebocytes; for % decrease in lipid syn.: 24 h, relative to vehicle control
Protocol: In Vitro Sebocyte Lipogenesis Assay
Human sebaceous glands were isolated from the nose of a person and cultured using submerged tissue culture techniques (Bajor et al, J. Invest. Dermatol., 102:1994, p. 564). These sebocytes accumulate intracellular lipid droplets characteristic of mature human sebum.
Harvested and passaged sebocytes were added to each well of a 96 well tissue culture plate and incubated at 37° C. in-the presence of 7.5% CO2 for 10 days. The growth medium was changed three times per week. On the day of experimentation, the growth medium was removed and the sebocytes washed three times with phosphate buffered saline (PBS). Fresh phenol-free sebocyte growth media in 0.2 ml amount containing various concentrations of active agent speculated to inhibit lipogenesis was added to each well. Triplicate wells were utilized for each sample. […] The cultures were incubated at 37° C./7.5% CO2 for 24 hours. Radioactive label was prepared by adding 100 μl (micro-liters) of 14-C labelled acetic acid (Amersham, sodium salt, specific activity of 56 mCi/mmol) to 10 ml of 50 mM sodium acetate buffer. Then 50 μl was added to each well containing the sebocytes and active agents. The cultures were returned to the incubator for 4 hours. Thereafter the treatments and label were removed and the sebocytes rinsed three times with fresh PBS. Samples containing the 14-C label were extracted and the label counted using a Beckman scintillation counter. Triplicates were performed for each sample.
For each 96 well tissue culture plate, 20 samples could be analyzed. Of these, 1 sample was reserved for media, 1 sample for DMSO or ethanol, and 1 sample for phenol red leaving 17 remaining samples.

Compound	% decrease in lipid syn. (40 uM) [%]	activity in reducing lipid synthesis in sebocytes (in words)	% decrease in lipid syn. (10 uM) [%]	% decrease in lipid syn. (20 uM) [%]	% decrease in lipid syn. (100 uM) [%]	other results
O=C(OC1Cc2c(O)cc(O)cc2OC1c1cc(O)c(O)c(O)c1)c1cc(O)c(O)c(O)c1 (single isomer, unassigned; (-)) [EGCG, (−)-epigallocatechin gallate]	13.4	significant activity				% decrease in lipid syn. (8 uM): 8.9%; % decrease in lipid syn. (200 uM): 29.5%; % decrease in lipid syn. (1000 uM): 90%
C=C1CCC(=O)O1 [γ-methylene γ-butyrolactone]		ineffective				
C=C1CCOC1=O [α-methylene-γ-butyrolactone]		significant activity	1.3	13.2	53.3	% decrease in lipid syn. (500 uM): 100%
[2R,3S]-2,3-epoxy4-oxo-7,10-trans, trans-dodecanoic acid amide [Cerulenin]	99.0	significant activity	96.5			% decrease in lipid syn. (1.6 uM): 13.6%; % decrease in lipid syn. (5 uM): 52.0%; % decrease in lipid syn. (concentration not printed (between 40 uM and 10 uM in the list)): 96.5%
Oc1cc(Cl)ccc1Oc1ccc(Cl)cc1Cl [Triclosan]	90	significant activity		48.8	97.2	
C=C/C(C)=C/[C@@]1(C)SC(=O)C(C)=C1O [Thiolactomycin]		not to inhibit				
